Results reported in US20040259176A1, “Structural basis for the guanine nucleotide-binding activity of tissue transglutaminase and its regulation of transamidation activity” (priority 2003, published 2004).

What was measured:
Assay type in all cases: cell-based, human
[1] = tested on: MDAMB231 cells; experiment: Nuclear condensation or blebbing assay (doxorubicin-induced apoptosis); conditions: FIG. 11C
Description: (§1) FIGS. 1A-D illustrate that the protective effect of EGF from doxorubicin-induced apoptosis is blocked by MDC in SKBR3 cells. In FIG. 11A, nearly confluent cultures of SKBR3 and MDAMB231 cells were placed in low serum medium. The following day, the cells were exposed to low serum medium +/−0.25 μM doxorubicin (Dox) for the times indicated and subsequently lysed. The presence of the activated form of caspase 3 (cleaved caspase 3) and actin (actin) in the cell extracts was assessed by Western blot analysis. In FIG. 11B, SKBR3 and MDAMB231 cells were maintained in low serum medium (0) or treated with 10 μM MDC (MDC) for 1.5 days. During this incubation, the SKBR3 cell cultures were also stimulated with +/−100 ng/ml EGF or +/−5 μM RA. All cell cultures were then treated with +/−0.25 μM doxorubicin (Dox) for about 1 day and the cells were scored for programmed cell death as described in Example 13. The assay was performed three times and the average percentage of cell death was plotted (FIG. 11C).
(§2) NIH3T3 cells were grown in Dulbecco's modified Eagle's medium containing 10% calf serum and 100 units/ml penicillin. SKBR3 and MDAMB231 cells were grown in RPMI 1640 medium containing 10% fetal bovine serum and 100 units/ml penicillin. The cell lines were maintained in a humidified atmosphere with 5% CO2 at 37° C. For the various treatments described, the cells were grown to near confluence in medium containing 10% serum, and then medium containing 1% serum or no serum with 5 μM RA, and/or 100 ng/ml EGF, +/−7 μM LY294002, and +/−0.2 μM doxorubicin were added for the appropriate amount of time. Cells were rinsed with phosphate-buffered saline (PBS) and then lysed with cell lysis buffer (10 mM Na2HPO4, 150 mM NaCl, 1% Triton X-100, 0.5% sodium deoxycholate, 0.1% SDS, 0.004% NaF, 1 mM NaVO4, 25 mM β-glycerophosphoric acid, 100 μg/ml phenylmethanesulfonyl fluoride, and 1 μg/ml each aprotinin and leupeptin, pH 7.35). The lysates were clarified by centrifugation at 12,000×g for 10 minutes at 4° C. Protein concentrations were determined using the Bio-Rad DC protein assay.
(§3) Cells were seeded in 6-well dishes and grown in complete medium for 2 days. The cells were then incubated in medium containing 1% serum +/−5 μM RA, +/−100 ng/ml EGF, and +/−10 μM MDC for 2 days. The cultures were then incubated with fresh medium containing RA, EGF, and MDC and +/−0.2 μM doxorubicin for an additional 1.5 days and were fixed and stained with 4,6-diamidino-2-phenylindole (2 μg/ml) for viewing by fluorescence microscopy. Apoptotic cells were identified by condensed nuclei and/or blebbing.

[2] = tested on: SKBR3 cells; experiment: as above
Description: as §1, §2, §3

[3] = tested on: MDAMB231 cells; experiment: Western blot for cleaved (activated) caspase 3; conditions: MDAMB231 cells exposed to doxorubicin; FIG. 11A
Description: as §1
(§4) NIH3T3 cells were grown in Dulbecco's modified Eagle's medium containing 10% calf serum and 100 units/ml penicillin. SKBR3 and MDAMB231 cells were grown in RPMI 1640 medium containing 10% fetal bovine serum and 100 units/ml penicillin. The cell lines were maintained in a humidified atmosphere with 5% CO2 at 37° C. […] Protein concentrations were determined using the Bio-Rad DC protein assay. […]

[4] = tested on: SKBR3 cells; experiment: Western blot for cleaved (activated) caspase 3; conditions: 24 hours of incubation with doxorubicin, FIG. 11A
Description: as §1, §4

Row | SMILES | susceptibility to doxorubicin-induced apoptosis compared to doxorubicin treatment alone ([1]; MDAMB231 cells, 10 μM MDC plus doxorubicin) | effect on the pro-survival effect of EGF from doxorubicin-induced apoptosis ([2]; SKBR3 cells incubated with MDC (10 μM), EGF and doxorubicin) | apoptotic rate ([1]; MDAMB231 cells exposed to doxorubicin (0.25 μM)) [%] | cells displaying nuclear condensation or blebbing ([2]; SKBR3 cells exposed to doxorubicin (0.25 μM, about 1 day), low serum, FIG. 11B) [%] | cleaved form of caspase 3 [3] | cleaved or activated caspase 3 [4]
1 | CN(C)c1cccc2c(S(=O)(=O)NCCCCCN)cccc12 [MDC, monodansylcadaverine] | slightly more than twice as susceptible | nearly completely eliminated the pro-survival effect of EGF | – | – | – | –
2 | COc1cccc2c1C(=O)c1c(O)c3c(c(O)c1C2=O)C[C@@](O)(C(=O)CO)C[C@@H]3O[C@H]1C[C@H](N)[C@H](O)[C@H](C)O1 [doxorubicin] | – | – | 25 | ~80 | failed to induce the cleaved form of caspase 3 to the same extent as in SKBR3 cells | easily detected
